Reference: patent US10040815B2, “3-substituted 5-amino-6H-thiazolo[4,5-d]pyrimidine-2,7-dione compounds for the treatment and prophylaxis of virus infection” (Hoffmann-La Roche Inc., priority 2014, dated 2018)
pEC50: −log10 of the molar value.

Key:
human TLR7 = human TLR7 (Homo sapiens (Human), UniProt Q9NYK1); assay: HEK293-Blue-hTLR-7 cells assay (SEAP reporter, NF-κB activation); format: cell-based; details: HEK293-Blue-hTLR-7 cells, 20 hours incubation, SEAP reporter; read-out: HEK293- hTLR-7 EC50
Text: HEK293-Blue-hTLR-7 Cells Assay: A stable HEK293-Blue-hTLR-7 cell line was purchased from InvivoGen (Cat.#: hkb-htlr7, San Diego, Calif., USA). These cells were designed for studying the stimulation of human TLR7 by monitoring the activation of NF-κB. A SEAP (secreted embryonic alkaline phosphatase) reporter gene was placed under the control of the IFN-β[…] minimal promoter fused to five NF-κB and AP-1-binding sites. The SEAP was induced by activating NF-κB and AP-1 via stimulating HEK-Blue hTLR7 cells with TLR7 ligands. Therefore the reporter expression was regulated by the NF-κB promoter upon stimulation of human TLR7 for 20 hours. The cell culture supernatant SEAP reporter activity was determined using QUANTI-Blue™ kit (Cat.#: rep-qb1, Invivogen, San Diego, Calif., USA) at a wavelength of 640 nm, a detection medium that turns purple or blue in the presence of alkaline phosphatase. […] Then 20 μL of the supernatant from each well was incubated with 180 μL Quanti-blue substrate solution at 37° C. for 2 hours and the absorbance was read at 620˜655 nm using a spectrophotometer. […] Hiroaki Hemmi et al, Nature Immunology 3, 196-200 (2002).

murine PBMC = assay: In vitro cytokine induction in murine PBMC (multiplex assay); details: 2 to 10 μM, 24 hours, dose-dependent
Experimental: Supernatants were collected at 24 hour post treatment and cytokine levels in supernatants were assessed by a multiplex assay.
50 μL of cell culture medium was collected and analyzed with a 36 plex Procarta multiplex kit (ebioscience EPX360-26092-901, eBioscience), which measured the levels of 15 cytokine analytes, following the manufacturer's instruction.

murine TLR7 = murine TLR7 (Mus musculus (Mouse), UniProt P58681); assay: HEK293-Blue-mTLR7 cell assay (SEAP reporter); format: cell-based; details: HEK293-Blue-mTLR7 cells, 20 hours incubation; read-out: EC50 of murine TLR7 activation
Experimental: FIG. 1: Example 1-A activates murine TLR7 in a HEK-Blue-mTLR assay. The cells were incubated with Example 1-A and a positive control GS-9620 at indicated concentrations for 20 hours. The activation of murine TLR7 was measured using a Quanti-Blue assay.
TLR7 Agonist Example 1-A Activates Murine TLR7
The potency of the TLR7 agonist Example 1-A activating murine TLR7 was assessed using a stable HEK293-Blue-mTLR7 cell line available from InvivoGen (Cat.#: hkb-mtlr7, San Diego, Calif., USA). Similar to the HEK293-Blue-hTLR7 as described in Example 43, the HEK293-Blue-mTLR7 is designed for studying the stimulation of murine TLR7 by monitoring the activation of NF-κB. A SEAP reporter gene was placed under the control of the IFN-β minimal promoter fused to five NF-κB and AP-1-binding sites. The SEAP expression was induced by the activation of NF-κB and AP-1 upon stimulation of murine TLR7 with TLR7 ligands. SEAP expression in cell culture supernatant was determined using a QUANTI-Blue™ kit (Cat.#: rep-qb1, Invivogen, San Diego, Calif., USA), a detection medium that turns purple/blue in the presence of alkaline phosphatase, at a wavelength of 655 nm. […]

Sequence of murine TLR7 (P58681 27-1050 limits assumed): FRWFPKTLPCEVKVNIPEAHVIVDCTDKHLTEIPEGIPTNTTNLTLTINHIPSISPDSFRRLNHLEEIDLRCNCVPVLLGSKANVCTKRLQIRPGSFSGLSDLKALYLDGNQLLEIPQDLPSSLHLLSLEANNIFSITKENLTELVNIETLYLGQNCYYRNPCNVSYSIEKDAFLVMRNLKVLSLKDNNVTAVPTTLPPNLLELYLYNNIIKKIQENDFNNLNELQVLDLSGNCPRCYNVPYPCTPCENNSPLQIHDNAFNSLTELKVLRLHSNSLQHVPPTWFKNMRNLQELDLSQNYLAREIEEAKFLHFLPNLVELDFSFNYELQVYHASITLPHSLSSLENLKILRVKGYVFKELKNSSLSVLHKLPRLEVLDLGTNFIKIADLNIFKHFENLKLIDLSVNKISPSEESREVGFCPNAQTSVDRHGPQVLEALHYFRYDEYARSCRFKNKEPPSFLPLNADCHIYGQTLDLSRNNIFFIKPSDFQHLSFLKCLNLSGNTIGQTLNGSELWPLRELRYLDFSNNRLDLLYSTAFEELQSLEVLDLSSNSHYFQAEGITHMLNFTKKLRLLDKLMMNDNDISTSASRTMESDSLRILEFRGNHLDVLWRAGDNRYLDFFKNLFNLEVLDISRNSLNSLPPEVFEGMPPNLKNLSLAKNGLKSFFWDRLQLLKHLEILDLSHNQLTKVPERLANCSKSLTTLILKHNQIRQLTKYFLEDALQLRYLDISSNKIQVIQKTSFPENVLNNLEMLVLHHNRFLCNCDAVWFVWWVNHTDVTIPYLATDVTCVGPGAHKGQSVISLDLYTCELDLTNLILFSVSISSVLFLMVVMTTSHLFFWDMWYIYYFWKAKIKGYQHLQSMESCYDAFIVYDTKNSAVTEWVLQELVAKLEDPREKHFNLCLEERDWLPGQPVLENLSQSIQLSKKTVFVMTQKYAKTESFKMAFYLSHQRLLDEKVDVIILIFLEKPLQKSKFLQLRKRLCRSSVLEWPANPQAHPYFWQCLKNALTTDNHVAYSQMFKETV
Sequence of human TLR7 (Q9NYK1 27-1049): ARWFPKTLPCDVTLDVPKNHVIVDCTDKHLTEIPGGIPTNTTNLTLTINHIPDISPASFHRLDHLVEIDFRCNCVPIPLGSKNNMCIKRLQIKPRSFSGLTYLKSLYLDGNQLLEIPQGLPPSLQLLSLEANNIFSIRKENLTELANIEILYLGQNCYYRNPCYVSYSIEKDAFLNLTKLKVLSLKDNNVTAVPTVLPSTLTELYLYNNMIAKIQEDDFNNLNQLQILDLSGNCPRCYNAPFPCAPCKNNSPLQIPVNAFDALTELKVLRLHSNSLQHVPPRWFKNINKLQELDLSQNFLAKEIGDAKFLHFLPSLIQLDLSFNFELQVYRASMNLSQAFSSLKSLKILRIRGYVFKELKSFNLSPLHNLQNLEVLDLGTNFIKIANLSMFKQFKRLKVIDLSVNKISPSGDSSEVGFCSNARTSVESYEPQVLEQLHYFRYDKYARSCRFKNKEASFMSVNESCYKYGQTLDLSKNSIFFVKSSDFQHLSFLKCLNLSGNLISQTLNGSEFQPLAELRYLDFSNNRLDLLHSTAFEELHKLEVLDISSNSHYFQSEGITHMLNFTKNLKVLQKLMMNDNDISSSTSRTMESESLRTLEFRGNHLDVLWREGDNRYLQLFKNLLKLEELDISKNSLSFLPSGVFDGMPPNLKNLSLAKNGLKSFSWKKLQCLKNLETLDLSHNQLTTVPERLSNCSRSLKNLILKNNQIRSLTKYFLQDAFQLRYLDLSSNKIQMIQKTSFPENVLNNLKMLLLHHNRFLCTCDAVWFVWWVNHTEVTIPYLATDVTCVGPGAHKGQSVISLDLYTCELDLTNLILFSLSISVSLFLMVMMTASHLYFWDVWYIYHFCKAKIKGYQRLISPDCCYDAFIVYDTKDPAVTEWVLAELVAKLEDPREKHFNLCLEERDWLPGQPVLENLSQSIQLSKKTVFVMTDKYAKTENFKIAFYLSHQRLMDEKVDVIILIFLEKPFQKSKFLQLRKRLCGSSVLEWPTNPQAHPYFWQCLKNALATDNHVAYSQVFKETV

CCC(O)[C@@H]1C[C@@H](O)[C@H](n2c(=O)sc3c(=O)[nH]c(N)nc32)O1 (single isomer, unassigned) [Example 1-A]
pEC50 (human TLR7): 4.28
IFNα induction (murine PBMC): high levels
IL-6 induction (murine PBMC): high levels
IP10 induction (murine PBMC): high levels
TNFα induction (murine PBMC): high levels
pEC50 (murine TLR7): 4.14
